Reference: patent publication US20250302799A1, “PHARMACEUTICAL COMPOSITION CONTAINING FRAXETIN FOR PREVENTION OR TREATMENT OF ENDOMETRIOSIS” (Research & Business Foundation Sungkyunkwan University, priority 2024, published 2025)

Assays:
Format in all cases: cell-based, human
[1] = test system: normal endometrial stromal cell line T-HESC; assay: BrdU cell proliferation assay, normal cells; settings: 48 hours
Protocol: To examine the effects of fraxetin on cell proliferation, the inventors performed a BrdU cell proliferation assay.
First, 5×10^3 cells of VK2/E6E7, End1/E6E7, and T-HESC were each distributed in 100 μL of medium in 96-well plates.
Fraxetin was then administered in a dose-dependent manner (0μM, 5 μM, 10 μM, 20 uM, 50 μM, 100 uM) and cultured for 48 hours, followed by the BrdU assay using a BrdU kit (Cat No: 1167229001, Roche) according to the manufacturer's instructions.
After 48 hours of incubation, 10 μM BrdU (Bromodeoxyuridine) was added to each well and incubated at 37° C. in a 5% CO2 incubator for 2 hours. The cells were then fixed, reacted with anti-BrdU-POD solution at room temperature for 90 minutes, and washed three times. Finally, 100 μL of 3, 3′, 5, 5′-tetramethylbenzidine substrate was added, and absorbance was measured at wavelengths of 370 nm and 492 nm to analyze cell proliferation.

[2] = test system: VK2/E6E7 cells; assay: Mitochondrial calcium concentration (rhod-2 staining)
Protocol: (§1) To examine intracellular or mitochondrial calcium concentration changes in endometrial cells induced by fraxetin, the inventors conducted experiments using 3 μM fluo-4 acetoxymethyl ester (AM) (Invitrogen) and 3 μM rhod-2.
(§2) First, cells were cultured in 6-well plates, treated with fraxetin in a dose-dependent manner (0 μM, 5 μM, 10 μM, 20 μM, 50 μM, 100 μM), and incubated at 37° C. in a 5% CO2 incubator for 48 hours. The cells were then detached using trypsin, washed with PBS, and stained with 3 μM fluo-4 or 3 μM rhod-2 for 20 minutes at 37° C. in a 5% CO2 incubator. After staining, the cells were washed with PBS, transferred to FACS tubes, and analyzed by flow cytometry to measure intracellular or mitochondrial calcium concentrations.

[3] = test system: End1/E6E7 cells; assay: as above
Protocol: as §1, §2

## COc1cc2ccc(=O)oc2c(O)c1O [fraxetin]
[1]
  cell proliferation in normal endometrial cells: no changes
[2]; 20 μM fraxetin, second value, VK2/E6E7 assumed
  mitochondrial calcium ion levels: 2.4 fold
[2]; 50 μM fraxetin
  mitochondrial calcium ion levels: slight increase
[3]; 20 μM fraxetin, first value, End1/E6E7 assumed
  mitochondrial calcium ion levels: 1.7 fold
[3]; 50 μM fraxetin
  mitochondrial calcium ion levels: slight increase
